Assay results from patent publication US10485236B2, “Triazole derivatives, intermediates thereof and their use as fungicides” (Bayer CropScience Aktiengesellschaft, priority 2015, dated 2019).

Experiments:
[1] = tested on: Blumeria graminis f.sp. hordei; assay: Example I: in vivo preventive Blumeria test (barley); settings: 168 h, 500 ppm of active ingredient, preventive spray, evaluated 7 days after inoculation, read-out: efficacy
Method: Example I: In Vivo Preventive Blumeria Test (Barley) [table] To produce a suitable preparation of active compound, 1 part by weight of active compound or active compound combination is mixed with the stated amounts of solvent and emulsifier, and the concentrate is diluted with water to the desired concentration. To test for preventive activity, young plants are sprayed with the preparation of active compound or active compound combination at the stated rate of application. After the spray coating has been dried, the plants are dusted with spores of Blumeria graminis f.sp. hordei. The plants are placed in the greenhouse at a temperature of approximately 18° C. and a relative atmospheric humidity of approximately 80% to promote the development of mildew pustules. The test is evaluated 7 days after the inoculation. 0% means an efficacy which corresponds to that of the untreated control, while an efficacy of 100% means that no disease is observed.

[2] = tested on: Septoria tritici; assay: Example L: in vivo preventive Septoria tritici test (wheat); settings: Zymoseptoria tritici, 504 h, 500 ppm of active ingredient, preventive spray, evaluated 21 days after inoculation, read-out: efficacy
Method: (§1) Example L: In Vivo Preventive Septoria tritici Test (Wheat) [table] To produce a suitable preparation of active compound, 1 part by weight of active compound or active compound combination is mixed with the stated amounts of solvent and emulsifier, and the concentrate is diluted with water to the desired concentration. To test for preventive activity, young plants are sprayed with the preparation of active compound or active compound combination at the stated rate of application. After the spray coating has been dried, the plants are sprayed with a spore suspension of Septoria tritici. The plants remain for 48 hours in an incubation cabinet at approximately 20° C. and a relative atmospheric humidity of approximately 100% and afterwards for 60 hours at approximately 15° C. in a translucent incubation cabinet at a relative atmospheric humidity of approximately 100%. The plants are placed in the greenhouse at a temperature of approximately 15° C. and a relative atmospheric humidity of approximately 80%. The test is evaluated 21 days after the inoculation. 0% means an efficacy which corresponds to that of the untreated control, while an efficacy of 100% means that no disease is observed.

[3] = Measurement of LogP values by HPLC on reversed phase columns (EEC directive 79/831 Annex V.A8); assay type: physicochemical; settings: reversed phase HPLC column
How it was run: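 Calibrated with straight-chain alkan-2-ones (3–16 carbons) of known LogP, using retention times with linear interpolation between successive alkanones. Where one method gives several LogP values, all are listed, joined by "+". Lambda-max taken from UV spectra (200–400 nm) at chromatographic peak maxima.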

[4] = tested on: Botrytis cinerea; assay: Example A: in vivo preventive test on Botrytis cinerea (grey mould), gherkin; settings: gherkin plants, preventive spray, evaluated 4 to 5 days after inoculation, read-out: efficacy
Method: Example A: In Vivo Preventive Test on Botrytis cinerea (Grey Mould) [table] The active ingredients are made soluble and homogenized in a mixture of Dimethyl sulfoxide/Acetone//Tween® 80 and then diluted in water to the desired concentration. The young plants of gherkin are treated by spraying the active ingredient prepared as described above. Control plants are treated only with an aqueous solution of Acetone/Dimethyl sulfoxide/Tween® 80. After 24 hours, the plants are contaminated by spraying the leaves with an aqueous suspension of Botrytis cinerea spores. The contaminated gherkin plants are incubated for 4 to 5 days at 17° C. and at 90% relative humidity. The test is evaluated 4 to 5 days after the inoculation. 0% means an efficacy which corresponds to that of the control plants while an efficacy of 100% means that no disease is observed.

[5] = tested on: Sphaerotheca fuliginea; assay: Example M: in vivo preventive test on Sphaerotheca (cucumbers); comparison of phenoxy-pyridyl compounds vs. known phenoxy-phenyl compounds; settings: Podosphaera fuliginea, 168 h, rate of application 10 ppm, evaluated 7 days after inoculation, read-out: Efficacy in %
Method: Example M: In Vivo Preventive Test on Sphaerotheca (Cucumbers); Comparison of Phenoxy-pyridyl Compounds According to the Invention Vs. Known Phenoxy-phenyl Compounds [table] To produce a suitable preparation of active compound, 1 part by weight of active compound is mixed with the above stated amounts of solvent and emulsifier, and the concentrate is diluted with water to the desired concentration. To test for preventive activity, young plants are sprayed with the preparation of active compound at the stated rate of application. After the spray coating has dried on, the plants are inoculated with an aqueous spore suspension of Sphaerotheca fuliginea. The plants are then placed in a greenhouse at approximately 23° C. and a relative atmospheric humidity of approximately 70%. The test is evaluated 7 days after the inoculation. 0% means an efficacy which corresponds to that of the untreated control, while an efficacy of 100% means that no disease is observed. [table]

[6] = tested on: Puccinia recondita; assay: Example B: in vivo preventive test on Puccinia recondita (brown rust on wheat); settings: 264 h, 500 ppm of active ingredient, wheat plants, preventive spray, evaluated 11 days after inoculation, read-out: efficacy
Method: Example B: In Vivo Preventive Test on Puccinia recondita (Brown Rust on Wheat) [table] The active ingredients are made soluble and homogenized in a mixture of Dimethyl sulfoxide/Acetone//Tween® 80 and then diluted in water to the desired concentration. The young plants of wheat are treated by spraying the active ingredient prepared as described above. Control plants are treated only with an aqueous solution of Acetone/Dimethyl sulfoxide/Tween® 80. After 24 hours, the plants are contaminated by spraying the leaves with an aqueous suspension of Puccinia recondita spores. The contaminated wheat plants are incubated for 24 hours at 20° C. and at 100% relative humidity and then for 10 days at 20° C. and at 70-80% relative humidity. The test is evaluated 11 days after the inoculation. 0% means an efficacy which corresponds to that of the control plants while an efficacy of 100% means that no disease is observed.

[7] = tested on: Leptosphaeria nodorum; assay: Example J: in vivo preventive Leptosphaeria nodorum test (wheat); settings: Parastagonospora nodorum, 192 h, 500 ppm of active ingredient, preventive spray, evaluated 8 days after inoculation, read-out: efficacy
Method: as §1, with “J:” for “L:”, “Leptosphaeria nodorum” for “Septoria tritici”, “Leptosphaeria nodorum.” for “Septoria tritici.”, “approximately” for “approximately 100% and afterwards for 60 hours at approximately 15° C. in a translucent incubation cabinet at a relative atmospheric humidity of approximately”, “25°” for “15°”, “8” for “21”

[8] = method [a]: LC-UV, acidic range, 0.1% formic acid in water and acetonitrile as eluent

Structure (SMILES) | chromatographic logP [3, 8] | chromatographic logP ([3]; method [b]: LC-UV, neutral range, 0.001 molar ammonium acetate solution in water and acetonitrile as eluent) | chromatographic logP ([3]; method [a], compounds of formula (VII), Table 4) | pest or weed control at 500 ppm [1] | pest or weed control at 500 ppm [2] | pest or weed control [4] | pest or weed control at 10 ppm [5] | pest or weed control at 500 ppm [6] | pest or weed control at 500 ppm [7]
OC(Cn1cncn1)c1ccc(Oc2ccc(Cl)cc2)nc1C(F)(F)F (stereo not shown) [I.03, 1-[6-(4-chlorophenoxy)-2-(trifluoromethyl)-3-pyridyl]-2-(1,2,4-triazol-1-yl)ethanol] | 2.7 | – | – | – | 90 to 100% | 90 to 100% | – | 90 to 100% | 80 to 89%
CC(O)(Cn1cncn1)c1cnc(Oc2ccccc2)cc1Cl (stereo not shown) [I.05] | 2.1 | 2.06 | – | 90 to 100% | 90 to 100% | 90 to 100% | 71% | 90 to 100% | 80 to 89%
OC(Cn1cncn1)c1ccc(Oc2ccc(Cl)cc2)nc1Cl (stereo not shown) [I.14] | 2.42 | – | – | 90 to 100% | – | 90 to 100% | 83% | 90 to 100% | 70 to 79%
OC(Cn1cncn1)c1cnc(Oc2ccc(S(F)(F)(F)(F)F)cc2)cc1C(F)(F)F (stereo not shown) [I.36] | 3.15 | – | – | 90 to 100% | 90 to 100% | – | 100% | 90 to 100% | 90 to 100%
C[C@@](O)(Cn1cncn1)c1cnc(Oc2ccc(Cl)cc2)cc1C(F)(F)F [I.45] | 2.84 | – | – | 90 to 100% | 90 to 100% | 90 to 100% | 99% | 90 to 100% | 90 to 100%
OC(Cn1cncn1)c1cnc(Oc2ccc(C(F)(F)F)cc2)cc1C(F)(F)F (stereo not shown) [I.47] | 2.84 | – | – | 90 to 100% | 90 to 100% | 80 to 89% | 100% | 90 to 100% | 90 to 100%
OC(Cn1cncn1)(c1ccc(Oc2ccc(Cl)cc2)nc1C(F)(F)F)C1CC1 (stereo not shown) [I.91, 1-[6-(4-chlorophenoxy)-2-(trifluoromethyl)-3-pyridyl]-1-cyclopropyl-2-(1,2,4-triazol-1-yl)ethanol] | 3.26 | – | – | 90 to 100% | 80 to 89% | 90 to 100% | – | 90 to 100% | –
O=C(Cn1cncn1)c1ccc(Oc2ccc(Cl)cc2)nc1C(F)(F)F [VII.01, 1-[6-(4-chlorophenoxy)-2-(trifluoromethyl)-3-pyridyl]-2-(1,2,4-triazol-1-yl)ethanone] | – | – | 2.92 | 90 to 100% | 90 to 100% | – | 78% | 90 to 100% | 90 to 100%

Second part, led by results:

chromatographic logP [3, 8] | chromatographic logP ([3]; method [b]: LC-UV, neutral range, 0.001 molar ammonium acetate solution in water and acetonitrile as eluent) | chromatographic logP ([3]; method [a], compounds of formula (VII), Table 4) | Structure (SMILES) | pest or weed control at 500 ppm [1] | pest or weed control at 500 ppm [2] | pest or weed control [4] | pest or weed control at 10 ppm [5] | pest or weed control at 500 ppm [6] | pest or weed control at 500 ppm [7]
2.88 | – | – | CC(O)(Cn1cncn1)c1ccc(Oc2ccc(Cl)cc2)nc1C(F)(F)F (stereo not shown) [I.01, 2-[6-(4-chlorophenoxy)-2-(trifluoromethyl)-3-pyridyl]-1-(1,2,4-triazol-1-yl)propan-2-ol] | 90 to 100% | 90 to 100% | 90 to 100% | 100% | 90 to 100% | 90 to 100%
2.9 | – | – | CC(O)(Cn1cncn1)c1cnc(Oc2ccc(Cl)cc2)cc1C(F)(F)F (stereo not shown) [I.02, 2-[6-(4-chlorophenoxy)-4-(trifluoromethyl)-3-pyridyl]-1-(1,2,4-triazol-1-yl)propan-2-ol] | 90 to 100% | 90 to 100% | – | – | 90 to 100% | 90 to 100%
2.73 | – | – | Cc1ccc(Oc2ccc(C(O)Cn3cncn3)c(Cl)n2)cc1Cl (stereo not shown) [I.16] | – | – | 90 to 100% | 77% | 80 to 89% | –
3.17 | – | – | CC(O)(Cn1cncn1)c1ccc(Oc2ccc(S(F)(F)(F)(F)F)cc2)nc1Cl (stereo not shown) [I.35] | 90 to 100% | 90 to 100% | – | 100% | 90 to 100% | 80 to 89%
2.41 | – | – | CC(O)(Cn1cncn1)c1ccc(Oc2ccc(C(F)F)cc2)nc1Cl (stereo not shown) [I.39] | 90 to 100% | 70 to 79% | 90 to 100% | 97% | 90 to 100% | 70 to 79%
